Source: patent US20220347253A1, “HEALTH FOOD AND COSMETICS FOR INCREASING THE AMOUNT OF APOPTOSIS CELLS AND DECREASING THE AMOUNT OF NECROSIS CELLS AND A METHOD OF MANUFACTURING A SPROUT-FORCING GRAPE SEED-DERIVED INGREDIENT FOR INCREASING THE AMOUNT OF APOPTOSIS CELLS AND DECREASING THE AMOUNT OF NECROSIS CELLS” (priority 2017, published 2022)

Experiments:
[1] = tested on: Normal human fibroblasts; experiment: Amount of apoptosis cells (FITC-Annexin V staining); format: cell-based; details: for amount of the apoptosis cells compared to the Control: Control = 100%, Example 1/2/3 = 0.002/0.01/0.05 wt % ingredient, Comparative Example 1 = 0.0023 wt % resveratrol
Excerpt: Example 1: a basal medium comprising 0.002 wt % of grape seed-derived anti-aging ingredients of the present invention. Example 2: a basal medium comprising 0.01 wt % of grape seed-derived anti-aging ingredients of the present invention. Example 3: a basal medium comprising 0.05 wt % of grape seed-derived anti-aging ingredients of the present invention. Comparative Example 1: a basal medium containing 0.0023 wt % of resveratrol. Control: a basal medium (comprising no grape seed-derived anti-aging ingredients of the present invention nor resveratrol). The amount of the apoptosis cells was measured using Annexin V which has been conventionally used as an apoptosis marker. In more detail, the amount of the apoptosis cells was measured by selectively fluorescently-staining the apoptosis cells by fluorescently labeled Annexin V, using its property that Annexin V binds to phosphatidylserine often appearing on a surface of the apoptosis cells. After removing the culture supernatant of a normal human fibroblast cultured in Example 2, the normal human fibroblast was washed twice with PBS (NISSUI PHARMACEUTICAL CO., LTD., product No.: 05913). To the washed normal human fibroblast were added a 1×Binding Buffer containing a 1000-fold diluted Hoechist 33342 solution (DOJINDO LABORATORIES, product No.: 346-079511), a 20-fold diluted FITC-Annexin V, and a 20-fold diluted EthD-III. Then, the normal human fibroblast was cultured at 37° C. for 30 minutes. Then, after removing culture supernatant, the normal human fibroblast was washed twice in the 1×Binding Buffer. New 1×Binding Buffer was added to the normal human fibroblast after the washing, and images of nuclear staining (viable cell), Annexin V staining (apoptosis), and an EthD-III staining (necrosis) were taken by a fluorescence microscope. The amount of apoptosis cells and the amount of necrosis cells were calculated from the fluorescent observation images. Furthermore, FITC-Annexin V, EthD-III and 1×Binding Buffer used in Examples were from Apoptotic/Necrotic/Healthy Cells Detection Kit (Takara Bio, Inc. product No.: D25517).

[2] = tested on: male and female mouse; details: cited from earlier work
[3] = tested on: Normal human fibroblasts; experiment: Amount of mitochondria (Mito Tracker Mitochondrion-Selective Probes); format: cell-based; details: for amount of mitochondria relative to Control: Control = 100%, Example 1/2/3 = 0.002/0.01/0.05 wt % ingredient, Comparative Example 1 = 0.0023 wt % resveratrol
Excerpt: Example 1: a basal medium comprising 0.002 wt % of grape seed-derived anti-aging ingredients of the present invention. Example 2: a basal medium comprising 0.01 wt % of grape seed-derived anti-aging ingredients of the present invention. Example 3: a basal medium comprising 0.05 wt % of grape seed-derived anti-aging ingredients of the present invention. Comparative Example 1: a basal medium containing 0.0023 wt % of resveratrol. Control: a basal medium (comprising no grape seed-derived anti-aging ingredients of the present invention nor resveratrol). The amount of mitochondria was measured using Mito Tracker Mitochondrion-Selective Probes (Invitrogen, product No.: M7512) which can selectively label mitochondria in a cell. After removing culture supernatants of normal human fibroblasts cultured in Example 2, normal human fibroblasts were washed twice with PBS (Nissui Pharmaceutical Co., Ltd., product No.: 05913). To the washed cells were added a basal medium comprising a 1000-fold diluted Hoechist 33342 solution (DOJINDO LABORATORIES, product No.: 346-07951) and a 2000-fold diluted Mito Tracker Mitochondrion-Selective Probes (Invitrogen, product No.: M7512), and normal human fibroblasts were cultured at 37° C. for 30 minutes. After the culture, culture supernatants were removed and normal human fibroblasts were washed twice with PBS (Nissui Pharmaceutical Co., Ltd., product No.: 05913). After wash, PBS (Nissui Pharmaceutical Co., Ltd., product No.: 05913) was newly added to the normal human fibroblasts, and nuclei staining (living cells) and stained images of mitochondria were taken by a fluorescence microscope (Keyence Corporation, product No.: BZ-[…]). Subsequently, each fluorescence intensity was measured using a fluorescent plate reader (Thermo Fisher Scientific, product No.: VARIOSKAN FLASH) (Hoechis: excitation wavelength 356 nm, fluorescence wavelength 465 nm, Mito Tracker: excitation wavelength 579 nm, fluorescence wavelength 599 nm).

[4] = tested on: budding yeast (Saccharomyces cerevisiae); details: cited from earlier work
[5] = tested on: Normal human fibroblasts; experiment: Test for confirming anti-aging effect: amount of senescent cells by SA-β-gal (SPiDER-βGal) staining; format: cell-based; details: for amount of the senescent cells relative to Control: Control = 100%, Example 1/2/3 = 0.002/0.01/0.05 wt % ingredient, Comparative Example 1 = 0.0023 wt % resveratrol
Description: Subsequent to initiation, Normal human fibroblasts (KURABO INDUSTRIES LTD., product No.: KF-4109) were cultured in a basal medium (DMEM (Nacalai Tesque, Inc., product No.: 08456-65)), 10% FBS (BioWest, product No.: S1820, Lot No. 516536), and 1% antibiotic (penicillin-streptomycin mixed solution (Nacalai Tesque, Inc., product No.: 26253-84)) in a CO2 incubator (5% CO2, 37° C.) until a required number of cells were obtained. […] After the resolution, Example and Comparative Example resolved in a basal medium were centrifuged respectively (120,000 rpm (2,000 s^-1), 10 minutes) to remove insoluble materials. After the centrifugal separation, supernatant was collected, filtered and sterilized through a sterilizing filter to be used for each test. Anti-aging effect of Example and Comparative Example was tested by measuring an activity of β-galactosidase (senescence-associated β-galactosidase; SA-β-gal) generally used as a cell aging marker. Normal human fibroblasts prepared with a basal medium was seeded on a 96-well plate so as to be 1×10^4 cells/0.1 ml/well (black plate for fluorescence observation (Sumitomo Bakelite Co., Ltd. product No.: MS-8096F)) and cultured for 24 hours. After the culture, culture supernatants were respectively replaced with the below mediums with different conditions, and normal human fibroblasts were cultured again. The conditions for each medium are as follows. Each cell cultured with mediums with each condition are referred to as Examples 1-3, Comparative Example 1, and Control respectively. Example 1: a basal medium comprising 0.002 wt % of grape seed-derived anti-aging ingredients of the present invention. Example 2: a basal medium comprising 0.01 wt % of grape seed-derived anti-aging ingredients of the present invention. Example 3: a basal medium comprising 0.05 wt % of grape seed-derived anti-aging ingredients of the present invention. Comparative Example 1: a basal medium containing 0.0023 wt % of resveratrol. Control: a basal medium (comprising no grape seed-derived anti-aging ingredients of the present invention nor resveratrol). Normal human fibroblasts were cultured respectively with the conditions for up to 21 days. The mediums were exchanged every 2 to 3 days. After the culture, culture supernatants were removed and the cells were washed twice with PBS (Nissui Pharmaceutical Co., Ltd., product No.: 05913). […] After wash, the basal medium was added to normal human fibroblasts, and nuclei staining (living cells) and stained images of the senescent cells were taken by a fluorescence microscope (Keyence Corporation, product No.: BZ-[…]). The amount of the senescent cells were calculated based on the respective fluorescent images. […]

[6] = tested on: Normal human fibroblasts; experiment: Workload of a certain amount of mitochondria (MTT assay); format: cell-based; details: for workload of a certain amount of mitochondria relative to Control: Control = 100%, Example 1/2/3 = 0.002/0.01/0.05 wt % ingredient, Comparative Example 1 = 0.0023 wt % resveratrol
Excerpt: Example 1: a basal medium comprising 0.002 wt % of grape seed-derived anti-aging ingredients of the present invention. Example 2: a basal medium comprising 0.01 wt % of grape seed-derived anti-aging ingredients of the present invention. Example 3: a basal medium comprising 0.05 wt % of grape seed-derived anti-aging ingredients of the present invention. Comparative Example 1: a basal medium containing 0.0023 wt % of resveratrol. Control: a basal medium (comprising no grape seed-derived anti-aging ingredients of the present invention nor resveratrol). The workload of a certain amount of mitochondria was measured by MTT assay. Since the only target of MTT assay is dehydrogenase activity of mitochondria, the result of MTT assay reflects the workload of a certain amount of mitochondria. After measuring the fluorescence intensity, supernatants were removed, and normal human fibroblasts were washed once with PBS (Nissui Pharmaceutical Co., Ltd., product No.: 05913). After the normal human fibroblasts were washed, they were replaced with PBS (100 μl/well) comprising 0.5 mg/ml of MTT (Thiazolyl Blue Tetrazolium Bromide (SIGMA, product No.: […] Subsequently, 100 μl of 0.01M HCl (SIGMA, product No.: 13-1690) and 10% SDS (Wako Pure Chemical Corporation, product No.: 191-07145) were added to each well and reacted at room temperature for 24 hours. After the reaction, formazan of MTT was resolved. After resolving formazan, absorbance was measured using a plate reader (Thermo Fisher Scientific, product No.: VARIOSKAN FLASH) (measurement wavelength 550 nm, reference wavelength 660 nm).

[7] = tested on: Normal human fibroblasts; experiment: Amount of necrosis cells (EthD-III staining); format: cell-based; details: for amount of the necrosis cells compared to the Control: Control = 100%, Comparative Example 1 = 0.0023 wt % resveratrol
Excerpt: Example 1: a basal medium comprising 0.002 wt % of grape seed-derived anti-aging ingredients of the present invention. Example 2: a basal medium comprising 0.01 wt % of grape seed-derived anti-aging ingredients of the present invention. Example 3: a basal medium comprising 0.05 wt % of grape seed-derived anti-aging ingredients of the present invention. Comparative Example 1: a basal medium containing 0.0023 wt % of resveratrol. Control: a basal medium (comprising no grape seed-derived anti-aging ingredients of the present invention nor resveratrol). […] The amount of the necrosis cells was measured using an ethidium homodimer III (EthD-III) which has been conventionally used as a necrosis marker. In more detail, EthD-III is a film-impermeable nucleic acid probe and the amount of the necrosis cells was measured by using its property that neither the viable cells nor the apoptosis cells are stained but the necrosis cells are stained in strong red with EthD-III. After removing the culture supernatant of a normal human fibroblast cultured in Example 2, the normal human fibroblast was washed twice with PBS (NISSUI PHARMACEUTICAL CO., LTD., product No.: 05913). To the washed normal human fibroblast were added a 1×Binding Buffer containing a 1000-fold diluted Hoechist 33342 solution (DOJINDO LABORATORIES, product No.: 346-079511), a 20-fold diluted FITC-Annexin V, and a 20-fold diluted EthD-III. Then, the normal human fibroblast was cultured at 37° C. for 30 minutes. Then, after removing culture supernatant, the normal human fibroblast was washed twice in the 1×Binding Buffer. New 1×Binding Buffer was added to the normal human fibroblast after the washing, and images of nuclear staining (viable cell), Annexin V staining (apoptosis), and an EthD-III staining (necrosis) were taken by a fluorescence microscope. The amount of apoptosis cells and the amount of necrosis cells were calculated from the fluorescent observation images. Furthermore, FITC-Annexin V, EthD-III and 1×Binding Buffer used in Examples were from Apoptotic/Necrotic/Healthy Cells Detection Kit (Takara Bio, Inc. product No.: D25517).

For Oc1ccc(/C=C/c2cc(O)cc(O)c2)cc1 [Comparative Example 1, trans-3,4′,5-trihydroxy-stillbene], the “effect on the amount of the apoptosis cells, in words” value ([1]; 7 to 21 days of culture) was “increasing the amount of the apoptosis cells”, the “amount of the apoptosis cells compared to the Control” value ([1]; cultured for 7 days) was 2184% and the “amount of the apoptosis cells compared to the Control” value ([1]; cultured for 14 days) was 1400%. The “amount of the apoptosis cells compared to the Control” value ([1]; cultured for 21 days) was 4525%, the “effect on life span of mice, in words” value [2] was “does not extend the life span” and the “effect on the amount of mitochondria, in words” value ([3]; 7 to 21 days of culture) was “increasing an amount of mitochondria”. For the same compound, the “amount of mitochondria relative to Control” value ([3]; cultured for 7 days) was 191%, the “amount of mitochondria relative to Control” value ([3]; cultured for 14 days) was 228% and the “extension of the life span of the budding yeast” value [4] was 70%. The “amount of senescent cells versus Control, in words” value ([5]; cells cultured for 7 days) was “more senescent cells among cells cultured for 7 days than Control”, the “amount of the senescent cells relative to Control” value ([5]; cultured for 7 days) was 519% and the “amount of the senescent cells relative to Control” value ([5]; cultured for 14 days) was 102%. For the same compound, the “amount of the senescent cells relative to Control” value ([5]; cultured for 21 days) was 64%, the “effect on the workload of a certain amount of mitochondria, in words” value ([6]; 7 to 21 days of culture) was “decreasing the workload of a certain amount of mitochondria” and the “workload of a certain amount of mitochondria relative to Control” value ([6]; cultured for 7 days) was 22%. The “workload of a certain amount of mitochondria relative to Control” value ([6]; cultured for 14 days) was 20%, the “workload of a certain amount of mitochondria relative to Control” value ([6]; cultured for 21 days) was 49% and the “effect on the amount of the necrosis cells, in words” value ([7]; 7 to 21 days of culture) was “increasing the amount of the necrosis cells in all the periods”. For the same compound, the “necrosis cells at higher concentration, in words” value ([7]; concentration of resveratrol more than 0.0023 wt %) was “necrosis cells increase too much”, the “amount of the necrosis cells compared to the Control” value ([7]; cultured for 7 days) was 125% and the “amount of the necrosis cells compared to the Control” value ([7]; cultured for 14 days (FIG. 5B), Example 1/2/3 = 0.002/0.01/0.05 wt % ingredient) was 801%. For the same compound, the “amount of the necrosis cells compared to the Control” value ([7]; cultured for 21 days, Example 1/2/3 = 0.002/0.01/0.05 wt % ingredient) was 608%.
